Test: gradient 5% acetonitrile 3 min, to 50% in 2 min, to 85% in 15 min, held 3 min, 100 µL/min
Settings: column: Zorbax Extend-C18 2.1 x 50 mm; eluents: water / acetonitrile, 0.1% formic acid
How it was run: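 Pure standards were analyzed in mixtures of ~100 molecules using HPLC coupled to a quadrupole time-of-flight mass spectrometer, in both positive and negative ionization mode. Separation used a Zorbax Extend-C18 column (2.1 × 50 mm, 1.8 μm) at 100 μL/min, with water and acetonitrile each containing 0.1% formic acid. Dead and dwell volumes were 40 μL and 900 μL, and data were collected over 3 months. Retention time was read from computationally picked adduct peaks, each inspected manually.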

| SMILES | RP-LC retention time |
| --- | --- |
| O=C(C1CCN(c2nnc3ccc(Cl)cn23)CC1)N1CCOCC1 | 599 s |
| O=S(=O)(Cc1c(F)cccc1Cl)N1CCc2nc(-c3ccc(F)cc3)ncc2C1 | 1130 s |
| O=C(CN1C(=O)C2CCCCN2c2ccc(S(=O)(=O)N3CCCC3)cc21)NCCc1ccccc1 (centres undefined) | 966 s |
| CCc1ccccc1NC(=O)Cc1c(C)n(C)c2nc(-c3ccccc3)nn2c1=O | 865 s |
| Cc1sc(S(=O)(=O)N2CCSCC2)cc1NC(=O)c1ccc(C(C)(C)C)cc1 | 1150 s |
| CC1CCc2nc3ncn(CC(=O)Nc4cccc(C#N)c4)c(=O)c3cc2C1 (centres undefined) | 738 s |
| Cc1cc(C)c(-c2nnc(NC(=O)c3ccccc3Br)s2)c(C)c1 | 988 s |
| O=C(NC1CCCC1)c1ccc(CN2CCN(Cc3ccccc3)C(=O)C2=O)cc1 | 734 s |
| O=C(NCc1ccccn1)C1=C2CCCN2c2ccc(F)cc2S1(=O)=O | 1030 s |
| COc1ccc(OCc2nn3c(-c4ccc(OC)c(OC)c4)nnc3s2)cc1 | 867 s |
| CCOc1ccc(-c2cc3c(=O)n(Cc4nc(-c5ccc(OC(C)C)cc5)no4)ncn3n2)cc1 | 1260 s |
| Cc1cccc(N2CCN(C(=O)CN3CCN(Cc4ccccc4F)C3=O)CC2)c1 | 864 s |
| Cn1cc(-c2ccccc2)cc1C(=O)N1CCN(C2CCCCC2)CC1 | 701 s |
| COc1ccc(CCNC(=O)COc2cc(=O)n3ccccc3n2)cc1 | 631 s |
| Cc1ccc(CNc2c(-c3cccc(Cl)c3)nc3ncccn23)cc1 | 901 s |
| COc1cccc(CN2CCC3(CC2)NCCc2c3[nH]c3ccc(OC)cc23)c1 | 589 s |
| COC(=O)c1cccc(C(=O)Nc2ccc(Cl)cc2F)n1 | 996 s |
| Cn1cc(-c2nc(C(=O)N3CCN(c4ccccc4Cl)CC3)cs2)c2cccnc21 | 1070 s |
| COC(=O)c1ccc(Cl)cc1NC(=O)N1CCN(CCn2c(C)nc3cccnc32)CC1 | 657 s |
| O=C(NCC1(N2CCOCC2)CCOC1)Nc1cc(F)cc(F)c1 (centres undefined) | 604 s |
| CCn1cc(-c2nc(C)c(C(=O)N3CCN(c4ccccc4)CC3)s2)c2cccnc21 | 994 s |
| CC(=O)N1CCCSc2ccc(S(=O)(=O)N3CCN(c4cc(C)ccc4C)CC3)cc21 | 1130 s |
| Cc1ccsc1C(=O)N1CCCn2cc(-c3ccccc3)nc21 | 686 s |

| SMILES | RP-LC retention time |
| --- | --- |
| Fc1ccc(-c2nc(-c3cccc(-c4ccn[nH]4)c3)no2)c(F)c1 | 992 s |
| Cc1ccccc1OCCCCn1c(CN2CCOCC2)nc2ccccc21 | 646 s |
| Nc1cc(C2CCN(C(=O)c3cc4ccccc4[nH]3)CC2)no1 | 713 s |
| O=C(Nc1cccc(C(F)(F)F)c1)N1CCN(c2ccc(Nc3cccnc3)nn2)CC1 | 566 s |
| CCN1CCC2(CC1)OC(=O)C(C)=C2C(=O)NCc1ccc(C)cc1 | 558 s |
| CCCS(=O)(=O)NCCN1C(=O)C2(CCCCC2)C1c1ccccc1 (centres undefined) | 898 s |
| O=C(Cc1ccc(NC(=O)Nc2ccccc2Cl)cc1)NCC(F)(F)F | 696 s |
| CCn1cc(C(=O)Nc2ccc(C)cc2C)c2cccnc21 | 962 s |
| CCCNC(=O)c1cc(C)nc2ccc(F)cc12 | 646 s |
| O=C(NC1(c2nc(-c3cccnc3)no2)CCCCC1)c1nccc2ccccc12 | 1100 s |
| CNC1(C)[C@H]2CC[C@H](C2)C1(C)C (some centres undefined) | 606 s |
| Cc1ncc2c(n1)CCCN(CC(=O)NC1CC1)C2=O | 567 s |
| CCCNC(=O)C1CCN(c2ccc(SCC(=O)Nc3ccc(F)c(F)c3)nn2)CC1 | 665 s |
| CN(C)CCN(Cc1ccccc1)C(=O)Cn1c(=O)oc2ccccc21 | 645 s |
| Cc1cccc(Sc2nccnc2N2CCCC(C(=O)N3CCCC3)C2)c1 (centres undefined) | 1010 s |
| O=C(NC1CCCCC1)C1CC(=O)N(c2ccc3c(c2)CCN3C(=O)C2CC2)C1 (centres undefined) | 733 s |
| COc1ccc(-c2nnc(-c3nc(NCc4ccc(C)o4)c4ccccc4n3)o2)cc1 | 985 s |
| COC(=O)c1cccc(-c2nc(C3CC(=O)N(c4ccc(F)cc4)C3)no2)c1 (centres undefined) | 884 s |
| O=C(NCc1csc(-c2cccs2)n1)C1CCN(S(=O)(=O)c2ccccc2)CC1 | 870 s |
| CCN1C(=O)COc2ccc(-c3noc(CNS(=O)(=O)c4ccccc4)n3)cc21 | 842 s |
| O=C(c1cn2ccnc(-c3ccccc3)c2n1)N1CCN(C2CCCCC2)CC1 | 637 s |
| CCN(c1ccccc1)S(=O)(=O)c1cc(-c2[nH]ncc2C(=O)N(C)C)oc1C | 739 s |
| CN(CC(=O)N1CCN(c2ccc(Cl)cc2)CC1)S(=O)(=O)c1ccc2c(c1)CCCC(=O)N2 | 828 s |

| SMILES | RP-LC retention time |
| --- | --- |
| Cc1cc(C)c(C(=O)N2CCC(CC(=O)NCCC(C)C)CC2)[nH]1 | 764 s |
| O=c1ccn(-c2cccc(F)c2)nc1-c1nc(-c2cccc(Cl)c2)no1 | 992 s |
| CC1=C(c2ccc(C)c(C)c2)S(=O)(=O)N=C1N1CCCN(C(=O)C(C)(C)C)CC1 | 903 s |
| COc1cccc(CNC(=O)Cc2csc3nc(-c4cccc(Br)c4)cn23)c1 | 925 s |
| COc1ccc(NC(=O)Nc2ccc(C)n(CC(=O)O)c2=O)cc1 | 668 s |
| COc1ccc(Cl)cc1NC(=O)c1c(N)c(C(=O)c2cccs2)n2ccccc12 | 1140 s |
| CCN1CCN(c2ccc(NC(C)=O)cn2)C1=O | 567 s |
| O=C(Cn1nc(S(=O)(=O)c2ccc(Cl)cc2)ccc1=O)N1CCN(c2ccc(F)cc2)CC1 | 910 s |
| Cc1ccccc1CNC(=O)C1(C)CCCN(C(=O)Nc2ccccc2Cl)C1 (centres undefined) | 1010 s |
| CCN(CC)C(=O)N1CC(Oc2cccc(-c3nc(C)no3)c2)C1 | 873 s |
| CCN(CC)CCNC(=O)c1ccc2c(c1)N(S(C)(=O)=O)CC2 | 554 s |
| Cc1ccc(NC(=O)N2CCC(N3CCN(Cc4ccccn4)C(=O)C3=O)CC2)cc1Cl | 658 s |
| Cc1ccc(Nc2c(-c3ccc(C)cc3)nc3ccc(Cl)cn23)cc1 | 890 s |
| O=C(NC1CCc2nnc(C3CC3)n2CC1)c1cnco1 (centres undefined) | 537 s |
| Cc1csc(-c2ccc(CNC(=O)c3cc(F)cc(F)c3)cc2)n1 | 939 s |
| Cc1cnc(C(=O)NC2C[C@H]3CC[C@@H](C2)N3C(=O)C2CCCCCC2)cn1 (some centres undefined) | 733 s |
| Cc1cccc(NC(=O)C2CCc3sc(C(=O)N(C)C)cc3C2)c1 (centres undefined) | 846 s |
| COc1ccc(C2=NCC(=O)N(CC(=O)Nc3cc(F)ccc3F)c3sccc32)cc1 | 702 s |
| O=C(Cn1cnc2c(-c3ccc(Cl)cc3)csc2c1=O)N1CCCCC1 | 922 s |
| CSc1ccc(-c2nc3cnccn3c2NC2CCCC2)cc1 | 914 s |
| Cc1[nH]c(C)c(S(=O)(=O)N2CCC(C(=O)Nc3cc(F)ccc3F)CC2)c1C(=O)N1CCCC1 | 644 s |
| CC(C)c1ccc2c(c1)-c1ccccc1S(=O)(=O)N2CC(=O)NCc1ccccn1 | 757 s |
| CCc1ccc(-c2noc(Cn3cnc4c(cnn4-c4ccc(OC)cc4)c3=O)n2)cc1 | 1130 s |

| SMILES | RP-LC retention time |
| --- | --- |
| CCN1CCN(C(=O)C(C)n2c3ccccc3c3cnn(C)c(=O)c32)CC1 (centres undefined) | 585 s |
| O=S(=O)(c1ccc(-c2nnc(C3CC3)o2)o1)N1CCN(c2ccccc2)CC1 | 971 s |
| COc1ccc(-c2nc3ccccn3c2Nc2ccc3c(c2)OCO3)cc1 | 633 s |
| CCNC(=O)c1ccc2nnc(C3CC3)n2c1 | 590 s |
| CCCC(NC(=O)Cc1ccc(OC)cc1Cl)C(=O)Nc1nc2ccccc2[nH]1 (centres undefined) | 730 s |
| Cc1ccc(NC(=O)C2CCCN(c3nc4ccsc4c(=O)n3-c3ccc(C)cc3)C2)cc1 (centres undefined) | 996 s |
| CCCNc1cc(N2CCC(CCC(=O)Nc3cc(C)ccc3C)CC2)ncn1 | 608 s |
| O=C(Cn1cccc1-c1nnc(-c2ccccc2)o1)N1CCc2ccccc21 | 1020 s |
| COC(=O)c1ccccc1NC1=NS(=O)(=O)c2ccccc21 | 934 s |
| O=C(NCc1ccc(-n2ccnc2)cc1)c1ccc(F)c(F)c1 | 625 s |
| COc1ccc(S(=O)(=O)N2CCCC(C(=O)NCCCO)C2)cc1OC (centres undefined) | 880 s |
| CCOC(=O)CNC(=O)N1CCCN(C2=NS(=O)(=O)C(c3ccc(C)cc3)=C2C)CC1 | 743 s |
| Cc1cccn2cc(-c3cccc(NS(=O)(=O)c4ccc(C(C)(C)C)cc4)c3)nc12 | 792 s |
| O=C(CSc1nnc(-c2ccc(Cl)cc2)o1)Nc1nccs1 | 867 s |
| CNC(=O)CCc1nc2ccccc2n(CC(=O)N2CCOc3ccc(C)cc32)c1=O | 728 s |
| O=S(=O)(c1ccc(F)cc1)N1CCC(n2cnnc2-c2ccccc2)CC1 | 774 s |
| Cc1ccc(NC(=O)C2CCN(S(=O)(=O)c3cc(C(=O)N(C)C)cs3)CC2)cc1F | 847 s |
| Cc1ccc(N(C)C(=O)Cn2ccc3c(=O)n(C)c(=O)n(C)c32)cc1C | 693 s |
| CCn1c(=O)c(N2CCN(C(=O)NCc3ccccc3)CC2)nc2ccccc21 | 820 s |
| Cc1[nH]nc(-c2c(C)sc(C)c2S(=O)(=O)N2CCc3ccccc3C2)c1C | 975 s |
